Results taken from publication PMC6695845 (Molecules, 2019).
Values joined by “and” are separate entries in the source; they are usually repeats but may differ in a detail not shown here. Equal values may be shown once. Where a name gives a salt, the structure may show the parent alone. Read-outs that look alike come from different tables or passages of the source.

How the values were obtained:
human α4β2 nAChR [1] = target: T1, human α4β2 nAChR (Homo sapiens, UniProt P17787+P43681); experiment: two-electrode voltage clamp on human α4β2 nAChR expressed in Xenopus laevis oocytes; format: cell-based; parameters: expressed in transfected cells; host or cells: Xenopus laevis oocytes (nuclear cDNA injection); details: for agonist profile at human α4β2 nAChR: in words; for Imax: maximal current normalized to response to 1 mM ACh, mean ± SEM; for Emax: read-out: maximal response (efficacy) as % of the ACh Imax
Experimental: The functional effects of our compounds were tested on α4β2 nAChR heterologously expressed in Xenopus laevis oocytes. Experiments were carried out by using the two-electrode voltage clamp procedure.
Figure 5 Interaction of phenylpyrrolidine derivatives with human α4β2 nicotinic receptors expressed in Xenopus laevis oocytes. Whole cell currents in response to agonist application were measured by a two-electrode voltage clamp. Concentration-response curves show activation of whole cell currents by compounds 1, 2, 3, and 4. Each point represents data from four to five cells, normalized to the amplitude of the maximal responses of ACh, which was stimulated by 1 mM of ACh. The data are fitted to a single component Hill curve.
The α4β2 nAChRs (wild type) were expressed heterologously in defolliculated oocytes from Xenopus laevis, which were dissected from adult female X. laevis frogs (Nasco, Fort Atkinson, WI, USA). The Oxford Brookes University Animal Research Committee, in accordance with the guidelines of the 1986 Scientific Procedures Act of the United Kingdom, approved the care and use of X. laevis frogs in this study. A mixture of 1:1 of human of α4 and β2 subunits for α4β2 subtype cDNAs were injected into the nuclei of oocytes in a volume of 23 nL/oocyte by using a Nanoject Automatic Oocyte Injector (Drummond Scientific, Broomall, PA, USA). After injection, oocytes were incubated at 17 °C in OPS (NaCl, KCl, CaCl2, MgCl2, pH 7.4) supplemented with a mixture of penicillin-streptomycin-anphotericin-B (10,000 IU/mL penicillin, 10 mg/mL streptomycin, and 25 µg amphotericin-B/mL) and amikacin (100 µg/mL). Experiments were performed on oocytes 2 to 6 days after injection.
Electrophysiological recording from oocyte post-injection was made at room temperature using a standard two electrode voltage clamp technique with an automatic multichannel system (HiClamp, Multichannel Systems, Reutlingen, Germany). Oocytes were impaled by two borosilicate capillary glass (Harvard Instrument: 150 TF GC) microelectrodes filled with 3 M KCl (0.3–2.0 MΩ) and voltage-clamped at −60 mV. During recording, oocytes were perfused with OPS (oocytes perfusion solution), as described in the manual of HiClamp. Agonist responses were normalized to the amplitude of the responses induced by 1 mM ACh, which is the maximal ACh concentration at α4β2 nAChRs. Between each successive ACh or compound application, the cell was perfused with OPS solution for 3 min to allow drug clearance and prevent receptor desensitization.

human α4β2 nAChR [2] = target: T1, human α4β2 nAChR; experiment: [3H]cytisine competition binding on membrane homogenates of SH-EP-hα4β2 clonal cells; parameters: expressed in transfected cells; details: mean ± SEM of four experiments
Experimental: First, we determined the half maximal inhibitory concentration (IC50) of the synthesized molecules for human α4β2 nAChR using [^3H]-cytisine ([^3H-Cyt]) as a radioligand. It is well known that [^3H-Cyt] binds to the agonist (orthosteric) site of α4β2 nACRs.
Figure 4 Effects of phenylpyrrolidine derivatives on binding of [^3H]cytisine to human α4β2 nAChRs. Data points represent the mean ± SEM of four experiments. Each experiment was carried out in triplicate. The radioligand concentration in all displacement studies was 1 nM. The concentration-inhibition data was analyzed non-linearly.
Membrane homogenates for [^3H]-Cyt binding studies were prepared from the SH-EP-h α4β2 clonal cell line, which express human α4β2 nAChRs. Cells were maintained in Dulbecco’s modified Eagle’s medium (Invitrogen, UK) supplemented with 5% fetal serum, 10% horse serum, 2 mM L-glutamine, 10 IU/mL penicillin, 10 μg/mL streptomycin, 2.5 μg/mL amphotericin-B, 0.25 mg/mL zeocin, and 0.13 mg/mL hygromycin.
Competition binding studies were performed on membrane homogenates prepared SH-EP-hα4β2 clonal cell line, using [^3H]cyt (PerkinElmer, UK), as previously described. Membrane homogenates were incubated at a final protein concentration of 30 to 50 µg per assay tube in a final volume of 250 µL of binding saline ([…]: 120 NaCl, 5 KCl, 1 MgCl2, 2.5 CaCl2, 50 Tris, pH 7.0) for 75 min at 4 °C with 1 nM [^3H]cyt. […] Bound and free fractions were separated by rapid filtration through Whatman GF/C filters presoaked in binding saline supplemented with 0.1% polyethyleneimine. Radioactivity was quantified by liquid scintillation spectrometry.

human α4β2 nAChR [3] = target: T1, human α4β2 nAChR; details: nicotine, included for comparison, no SEM, not in Figure 5; cited from earlier work
[4] = Xenopus laevis oocytes, -60 mV, mean ± SEM of four to five experiments, read-out: α4β2 EC50
[5] = displacement of 1 nM [3H]cytisine, read-out: α4β2 IC50
[6] = relative to 1 mM ACh, Xenopus laevis oocytes

Q: With `CN1CCC[C@H]1COc1cccc(N)c1` (as salt: hydrochloride) [Compound 2, (S)-1-methyl-2-(3′-aminophenoxymethyl)pyrrolidine Ether] as the compound, how does the melting point read?
A: Its melting point is 198 to 200 °C.

Q: Which EC50 (human α4β2 nAChR [1]; [4]) does the source give for `CN1CCC[C@H]1COc1ccccc1` [Compound 1, (S)-1-methyl-2-(phenoxymethyl)pyrrolidine Ether] here?
A: The EC50 was 68800 ± 1300 nM.

Q: And the “agonist profile at human α4β2 nAChR” value (human α4β2 nAChR [1]; Xenopus laevis oocytes)?
A: Its value is “partial agonist”.

Q: And the IC50 (human α4β2 nAChR [2]; [5])?
A: Its IC50 is 204 ± 6 nM.

Q: Which results are given for `CN1CCC[C@H]1COc1cccc(N)c1` [Compound 2, (S)-1-methyl-2-(3′-aminophenoxymethyl)pyrrolidine Ether]?
A: EC50 (human α4β2 nAChR [1]; [4]): 10800 ± 700 nM; agonist profile at human α4β2 nAChR (human α4β2 nAChR [1]; Xenopus laevis oocytes): full agonist; fold more potent than compound 1 (EC50) (human α4β2 nAChR [1]; Xenopus laevis oocytes, ratio of EC50 values): about seven-fold; Imax (human α4β2 nAChR [1]; Xenopus laevis oocytes): 1.00 ± 0.01; Emax (human α4β2 nAChR [1]; [6]): 100%; IC50 (human α4β2 nAChR [2]; [5]): 13 nM and 13.8 nM

Q: Which results are given for `CN1CCC[C@H]1COc1cccc(Cl)c1` [Compound 3, (S)-1-methyl-2-(3′-Chlorophenoxymethyl)pyrrolidine Ether]?
A: EC50 (human α4β2 nAChR [1]; [4]): 63300 ± 2100 nM; agonist profile at human α4β2 nAChR (human α4β2 nAChR [1]; Xenopus laevis oocytes): partial agonist; Imax (human α4β2 nAChR [1]; Xenopus laevis oocytes): 0.29 ± 0.01; Emax (human α4β2 nAChR [1]; [6]): 29%; IC50 (human α4β2 nAChR [2]; [5]): 221 ± 10 nM

Q: For `CN1CCC[C@H]1COc1cccc(Br)c1` [Compound 4, (S)-1-methyl-2-(3′-bromophenoxymethyl)pyrrolidine Ether], which EC50 (human α4β2 nAChR [1]) is on record?
A: Its EC50 is 56700 ± 1700 nM.

Q: What about the “agonist profile at human α4β2 nAChR” value (human α4β2 nAChR [1]; Xenopus laevis oocytes) of the same compound?
A: The value was “partial agonist”.

Q: And the Imax (human α4β2 nAChR [1]; Xenopus laevis oocytes)?
A: Its Imax is 0.13 ± 0.01.

Q: And the Emax (human α4β2 nAChR [1])?
A: The Emax was 13%.

Q: What about the IC50 (human α4β2 nAChR [2]; α4β2 IC50, displacement of 1 nM [3H]cytisine) of the same compound?
A: The IC50 was 188 ± 7 nM.

Q: For `CN1CCC[C@H]1c1cccnc1` [Nicotine], which Imax (human α4β2 nAChR [3]) is on record?
A: The Imax was 1.00.
